Data on 24 substances can be found in patent US9526796B2, “Peptide-based in vivo siRNA delivery system” (priority 2010, dated 2016).

Non-standard residues stand in square brackets, D forms with d. No end group written: not given here. *: point of attachment. Nle = CCCC[C@H](N)C(=O)O; Cbz = O=C(OCc1ccccc1)*

The subject of the experiment is ApoB. Briefly: Knockdown of endogenous serum ApoB in mice after co-injection of masked melittin delivery peptide and ApoB siRNA-cholesterol conjugate. The experiment is classed as in vivo. The procedure: RNAi polynucleotide conjugates and masked melittin peptides were synthesized as described above. Six to eight week old mice (strain C57BL/6 or ICR, ˜18-20 g each) were obtained from Harlan Sprague Dawley (Indianapolis Ind.). Mice were housed at least 2 days prior to injection. Feeding was performed ad libitum with Harlan Teklad Rodent Diet (Harlan, Madison Wis.). Mice were injected with 0.2 mL solution of delivery peptide and 0.2 mL siRNA conjugates into the tail vein. For simultaneous injection of delivery peptide and siRNA, the siRNA-conjugate was added to modified peptide prior to injection and the entire amount was injected. The composition was soluble and nonaggregating in physiological conditions. Solutions were injected by infusion into the tail vein.
Mice were fasted for 4 h (16 h for rats) before serum collection by submandibular bleeding. For rats blood was collected from the jugular vein. Serum ApoB protein levels were determined by standard sandwich ELISA methods. Briefly, a polyclonal goat anti-mouse ApoB antibody and a rabbit anti-mouse ApoB antibody (Biodesign International) were used as capture and detection antibodies respectively. An HRP-conjugated goat anti-rabbit IgG antibody (Sigma) was applied afterwards to bind the ApoB/antibody complex. Absorbance of tetramethyl-benzidine (TMB, Sigma) colorimetric development was then measured by a Tecan Safire2 (Austria, Europe) microplate reader at 450 nm.
Melittin was reversibly modified with CDM-NAG as described above. The indicated amount of melittin was then co-injected with the 200 μg ApoB siRNA-cholesterol conjugate. Effect on ApoB levels were determined as described above.
Melittin was reversibly modified with CDM-NAG as described above. The indicated amount of melittin was then co-injected with 50 μg ApoB siRNA-cholesterol conjugate. Effect on ApoB levels were determined as described above.
Melittin was reversibly modified with CDM-NAG (5×) as described above. The indicated amount of melittin was then co-injected with the indicated amount of ApoB siRNA-cholesterol conjugate. Effect on ApoB levels were determined as described above.
Melittin was reversibly modified with the indicated amount of CDM-NAG as described above. 50 μg melittin was then co-injected with the 100 μg ApoB siRNA-cholesterol conjugate. Effect on ApoB levels were determined as described above.
Melittin peptides having the indicated sequence were reversibly modified with CDM-NAG (5×) as described above. The indicated amount of melittin was then co-injected with the indicated amount of ApoB siRNA-cholesterol conjugate. Effect on ApoB levels were determined as described above.
Melittin peptides containing the indicated PEG amino terminal modifications were synthesized as described above. The PEG amino terminal modified melittin peptides were then reversibly modified with 5×CDM-NAG as described above. The indicated amount of Melittin was then co-injected with the 100-200 μg ApoB siRNA-cholesterol conjugate. Effect on ApoB levels were determined as described above. Addition of PEG less than 5 kDa in size decreased toxicity of the melittin peptides.

Where [1] appears, read: CDM-NAG (5×), 400 μg peptide per mouse, 200 μg siRNA per mouse.
Setting [2] is: CDM-NAG (5×), 100 μg peptide per mouse, 100 μg siRNA per mouse.
Where [3] appears, read: CDM-NAG (5×), 400 μg peptide per mouse, 100 μg siRNA per mouse.

As for (Ac-CIGAVLKVLTTGLPALISWIKRKRQQ-NH2)2, the percent knockdown under setting [1] was determined as 45%. The same measure, in the same setting: next, Ac-CIGAVLKVLTTGLPALISWIKRKRQQ-NH2: 85%. “Acetyl-dMel-NH2 (Seq ID 107): melittin peptide derivative (Ac-G[dI]G[dA][dI][dL][dK][dV][dL][dA][dT]G[dL][dP][dT][dL][dI][dS][dW][dI][dK][dN][dK][dR][dK][dQ]-NH2; SMILES CC[C@@H](C)[C@@H](NC(=O)CNC(C)=O)C(=O)NCC(=O)N[C@H](C)C(=O)N[C@@H](C(=O)N[C@H](CC(C)C)C(=O)N[C@H](CCCCN)C(=O)N[C@@H](C(=O)N[C@H](CC(C)C)C(=O)N[C@H](C)C(=O)N[C@@H](C(=O)NCC(=O)N[C@H](CC(C)C)C(=O)N1CCC[C@@H]1C(=O)N[C@@H](C(=O)N[C@H](CC(C)C)C(=O)N[C@@H](C(=O)N[C@H](CO)C(=O)N[C@H](Cc1c[nH]c2ccccc12)C(=O)N[C@@H](C(=O)N[C@H](CCCCN)C(=O)N[C@H](CC(N)=O)C(=O)N[C@H](CCCCN)C(=O)N[C@H](CCCNC(=N)N)C(=O)N[C@H](CCCCN)C(=O)N[C@H](CCC(N)=O)C(N)=O)[C@H](C)CC)[C@H](C)CC)[C@H](C)O)[C@H](C)O)C(C)C)[C@H](C)CC)” gave a percent knockdown under setting [2] of 89%. The substance “Apis Mellifera (Big Honey Bee; Seq ID 50): Apis mellifera melittin” showed a percent knockdown under setting [3] of 72%.

Turning to “C-Mel G1L (Seq ID 51): melittin peptide derivative (CLIGAILKVLATGLPTLISWIKNKRKQ; N-terminal cysteine; melittin-like peptide derive from Apis florea)”, the percent knockdown under setting [2] is recorded as 89%. On the same count and under the same terms, as for “C-dMel G1Nle (Seq ID 52): melittin peptide derivative (C[Nle]IGAILKVLATGLPTLISWIKNKRKQ; also: D-amino acids (dMel), positions not given here)”, the figure is 84%. “CBZ-Mel (Seq ID 108): melittin peptide derivative (Cbz-GIGAILKVLATGLPTLISWIKNKRKQ)” displayed a percent knockdown (CDM-NAG (5×), 100 μg peptide per mouse, 80 μg siRNA per mouse) of 96%.

As for “CFK-G1L dMel-C (Seq ID 69): melittin peptide derivative (CFKLIGAILKVLATGLPTLISWIKNKRKQC; not fully specified (some residues); cysteine pairing not given here)”, the percent knockdown under setting [2] turned out to be 79%. Take “CKLK-Mel G1L (Seq ID 57): melittin peptide derivative; in Table 9 also with amino terminal NAG-(PEG)2/4/8 or PEG (5k) (CKLKLIGAILKVLATGLPTLISWIKNKRKQ; N-terminal CKLK extension; melittin-like peptide derive from Apis florea)”: the percent knockdown (5× CDM-NAG, amino terminal NAG-(PEG)2, 25 μg peptide, 100 μg siRNA) stood at 15%; the percent knockdown (5× CDM-NAG, amino terminal NAG-(PEG)2, 50 μg peptide, 100 μg siRNA) is listed as 83%; the percent knockdown (5× CDM-NAG, amino terminal NAG-(PEG)4, 25 μg peptide, 100 μg siRNA) worked out at 58%; the percent knockdown (5× CDM-NAG, amino terminal NAG-(PEG)4, 50 μg peptide, 100 μg siRNA) is 81%; the percent knockdown (5× CDM-NAG, amino terminal NAG-(PEG)4, 100 μg peptide, 100 μg siRNA) is listed as 94%; the percent knockdown (5× CDM-NAG, amino terminal NAG-(PEG)8, 25 μg peptide, 100 μg siRNA) was 58%. The percent knockdown runs as follows: (5× CDM-NAG, amino terminal NAG-(PEG)8, 50 μg peptide, 100 μg siRNA) 89%; (5× CDM-NAG, amino terminal NAG-(PEG)8, 100 μg peptide, 100 μg siRNA) 96%; (5× CDM-NAG, amino terminal PEG (5k), 100 μg peptide, 100 μg siRNA) 90%; (5× CDM-NAG, no PEG modification, 150 μg peptide, 100 μg siRNA) 91%; (5× CDM-NAG, no PEG modification, 400 μg peptide, 100 μg siRNA) 97%; (CDM-NAG (5×), 150 μg peptide per mouse, 100 μg siRNA per mouse) 91%.

“CKLK-dMel G1Nle (Seq ID 112): melittin peptide derivative (CKLK[Nle]IGAILKVLATGLPTLISWIKNKRKQ; also: D-amino acids (dMel), positions not given here)” came in with a percent knockdown (CDM-NAG (5×), 200 μg peptide per mouse, 100 μg siRNA per mouse) of 84%. Substance “Dimethyl G-Mel G1L (Seq ID 53): melittin peptide derivative (dimethyl-GLIGAILKVLATGLPTLISWIKNKRKQ)” showed a percent knockdown under setting [2] of 91%.

“G1A (Seq ID 2): melittin peptide derivative (AIGAILKVLATGLPTLISWIKNKRKQ; melittin-like peptide derive from Apis florea)” gave a percent knockdown under setting [2] of 88%. The substance “G1C (Seq ID 3): melittin peptide derivative (CIGAILKVLATGLPTLISWIKNKRKQ; melittin-like peptide derive from Apis florea)” had a percent knockdown under setting [2] of 37%. With “G1F dMel (Seq ID 4): melittin peptide derivative ([dF][dI]G[dA][dI][dL][dK][dV][dL][dA][dT]G[dL][dP][dT][dL][dI][dS][dW][dI][dK][dN][dK][dR][dK][dQ])”, where the note is “CDM-NAG (5×), 100 μg peptide per mouse, 50 μg siRNA per mouse”, the percent knockdown is 94%. In turn, “G1H (Seq ID 5): melittin peptide derivative (HIGAILKVLATGLPTLISWIKNKRKQ; melittin-like peptide derive from Apis florea)” returned a percent knockdown under setting [3] of 78%. “G1L Mel (1-23) (Seq ID 71): melittin peptide derivative (LIGAILKVLATGLPTLISWIKNK; melittin-like peptide derive from Apis florea)”: the percent knockdown under setting [3] amounted to 69%. On the same count and under the same terms, next, “G1L Mel-Cys (Seq ID 63): melittin peptide derivative (LIGAILKVLATGLPTLISWIKNKRKQC; C-terminal cysteine; melittin-like peptide derive from Apis florea)”: 82%. In turn, “G1L Mel-KLKC (Seq ID 65): melittin peptide derivative (LIGAILKVLATGLPTLISWIKNKRKQKLKC; C-terminal KLKC extension; melittin-like peptide derive from Apis florea)” returned a percent knockdown under setting [2] of 97%. The same measure, in the same setting: as for “G1L d(1-11)-1(12-26) (Seq ID 109): melittin peptide derivative ([dL][dI]G[dA][dI][dL][dK][dV][dL][dA][dT]GLPTLISWIKNKRKQ)”, the figure is 70%. For the setting “CDM-NAG (5×), 50 μg peptide per mouse, 100 μg siRNA per mouse”, “G1L dMel-C (Seq ID 114): melittin peptide derivative ([dL][dI]G[dA][dI][dL][dK][dV][dL][dA][dT]G[dL][dP][dT][dL][dI][dS][dW][dI][dK][dN][dK][dR][dK][dQ]C)” yielded a percent knockdown of 93%. For “G1L retro-dMel-KLK-PEG(5k) (Seq ID 115): melittin peptide derivative (KLK[dQ][dK][dR][dK][dN][dK][dI][dW][dS][dI][dL][dT][dP][dL]G[dT][dA][dL][dV][dK][dL][dI][dA]G[dI][dL]; also: PEG 5k conjugated)”, under setting [2], the percent knockdown was 32%.

Turning to “G1L retroMel-KLK-Stearoyl (Seq ID 75): melittin peptide derivative (KLKQKRKNKIWSILTPLGTALVKLIAGIL; also: stearoyl, site not given here)”, the percent knockdown under setting [3] stood at 50%.

“G1L retroMel-Stearoyl (Seq ID 74): melittin peptide derivative (QKRKNKIWSILTPLGTALVKLIAGIL; also: stearoyl, site not given here)”: the percent knockdown under setting [3] worked out at 56%. Same read-out and setting: as for “G1L, G12L (Seq ID 22): melittin peptide derivative (LIGAILKVLATLLPTLISWIKNKRKQ; melittin-like peptide derive from Apis florea)”, the figure is 93%.
